Experimental data reported in patent publication US20150284375A1 (AJINOMOTO CO., INC., priority 2012, published 2015).

molecular target: T1, human TRPA1 (Homo sapiens, UniProt O75762); assay: Measurement of TRPA1 antagonist activity (intracellular calcium increase, FLIPR, allylisothiocyanate stimulation); assay type: cell-based; details: allylisothiocyanate 20 μM stimulation, FLIPR calcium assay; read-out: antagonism hTRPA1
T1 construct: expressed in transfected cells; host or cells: Human embryonic kidney-derived 293T cells, transiently transfected with the pcDNA3.1/zeo(+) human TRPA1 plasmid
T1 sequence (O75762 whole entry): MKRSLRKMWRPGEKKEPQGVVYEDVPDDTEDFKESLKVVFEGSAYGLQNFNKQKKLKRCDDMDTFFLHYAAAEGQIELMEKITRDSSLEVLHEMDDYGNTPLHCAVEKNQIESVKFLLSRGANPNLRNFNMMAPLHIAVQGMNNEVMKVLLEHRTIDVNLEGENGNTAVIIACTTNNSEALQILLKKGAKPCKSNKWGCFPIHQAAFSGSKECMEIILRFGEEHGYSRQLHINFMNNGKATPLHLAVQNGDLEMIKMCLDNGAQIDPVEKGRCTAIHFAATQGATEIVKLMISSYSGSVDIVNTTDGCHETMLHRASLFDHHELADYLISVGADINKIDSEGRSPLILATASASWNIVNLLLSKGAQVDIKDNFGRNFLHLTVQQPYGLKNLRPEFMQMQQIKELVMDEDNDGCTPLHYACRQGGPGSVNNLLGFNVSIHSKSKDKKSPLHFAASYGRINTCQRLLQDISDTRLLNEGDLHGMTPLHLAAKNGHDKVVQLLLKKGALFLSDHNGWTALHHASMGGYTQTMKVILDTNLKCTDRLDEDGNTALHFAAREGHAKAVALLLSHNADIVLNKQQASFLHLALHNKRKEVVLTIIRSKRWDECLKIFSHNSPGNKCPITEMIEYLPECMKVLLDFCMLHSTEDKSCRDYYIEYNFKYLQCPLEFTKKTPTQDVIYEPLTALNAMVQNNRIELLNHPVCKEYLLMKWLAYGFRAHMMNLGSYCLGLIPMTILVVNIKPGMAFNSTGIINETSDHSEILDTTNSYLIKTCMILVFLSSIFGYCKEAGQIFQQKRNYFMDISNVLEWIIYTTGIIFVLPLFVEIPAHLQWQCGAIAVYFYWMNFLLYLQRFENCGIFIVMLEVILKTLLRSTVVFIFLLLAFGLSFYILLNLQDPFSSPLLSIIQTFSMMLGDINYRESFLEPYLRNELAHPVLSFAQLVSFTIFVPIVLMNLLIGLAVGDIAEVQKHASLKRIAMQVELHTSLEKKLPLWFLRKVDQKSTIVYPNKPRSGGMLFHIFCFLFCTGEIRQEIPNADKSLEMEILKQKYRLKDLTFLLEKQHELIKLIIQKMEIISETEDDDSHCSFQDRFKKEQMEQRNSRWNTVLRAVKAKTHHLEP
Method in brief: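 IC50 derives from a sigmoid fit of inhibition of the 5-min FLIPR fluorescence change evoked by 20 μM allylisothiocyanate, normalized between agonist and buffer responses. Test substance, diluted in HBSS/20 mM HEPES pH 7.2 plus 0.1% BSA, was applied 10 min beforehand at room temperature to Calcium4-loaded 293T cells transiently expressing human TRPA1.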

| IC50 | Structure (SMILES) |
| --- | --- |
| 99 nM | O=C(NCc1cccc(OCc2ccc(C(F)(F)F)cc2)c1)[C@@H]1C[C@H]2C[C@H]2N1S(=O)(=O)c1ccc(F)cc1 [Example 173, (1R,3S,5R)-4-(4-fluorophenyl)sulfonyl-N-[[3-[[4-(trifluoromethyl)phenyl]methoxy]phenyl]methyl]-4-azabicyclo[3.1.0]hexane-3-carboxamide] |
| 49 nM | O=C(NCc1cccc(OCc2ccc(C(F)(F)F)cc2)c1)[C@@H]1C[C@@H]2C[C@@H]2N1S(=O)(=O)c1ccc(F)cc1 [Example 174, (1S,3S,5S)-4-(4-fluorophenyl)sulfonyl-N-[[3-[[4-(trifluoromethyl)phenyl]methoxy]phenyl]methyl]-4-azabicyclo[3.1.0]hexane-3-carboxamide] |
| 780 nM | O=C(NCc1cccc(OCc2ccc(C(F)(F)F)cc2)c1)[C@@H]1CCCCN1S(=O)(=O)c1ccc(F)cc1 [Example 175, (2S)-1-(4-fluorophenyl)sulfonyl-N-[[3-[[4-(trifluoromethyl)phenyl]methoxy]phenyl]methyl]piperidine-2-carboxamide] |
| 36 nM | O=C(NCc1cccc(OCc2ccc(C(F)(F)F)cc2)c1)[C@@H]1CCCN1S(=O)(=O)c1ccco1 [Example 176, (2S)-1-(2-furylsulfonyl)-N-[[3-[[4-(trifluoromethyl)phenyl]methoxy]phenyl]methyl]pyrrolidine-2-carboxamide] |
| 27 nM | O=C(NCc1cccc(OCc2ccc(C(F)(F)F)cc2)c1)[C@@H]1CCCN1S(=O)(=O)c1ccoc1 [Example 177, (2S)-1-(3-furylsulfonyl)-N-[[3-[[4-(trifluoromethyl)phenyl]methoxy]phenyl]methyl]pyrrolidine-2-carboxamide] |
| 8.6 nM | O=C(NCc1cccc(OCc2ccc(C(F)(F)F)cc2)c1)[C@@H]1CCCN1S(=O)(=O)c1ccsc1 [Example 178, (2S)-1-(3-thienylsulfonyl)-N-[[3-[[4-(trifluoromethyl)phenyl]methoxy]phenyl]methyl]pyrrolidine-2-carboxamide] |
| 600 nM | O=C(NCc1cccc(OCc2ccc(C(F)(F)F)cc2)c1)[C@@H]1[C@@H](O)CCN1S(=O)(=O)c1ccco1 [Example 179, (2S,3S)-1-(2-furylsulfonyl)-3-hydroxy-N-[[3-[[4-(trifluoromethyl)phenyl]methoxy]phenyl]methyl]pyrrolidine-2-carboxamide] |
| 1300 nM | O=C(NCc1cccc(OCc2ccc(C(F)(F)F)cc2)c1)[C@@H]1C[C@@H](O)CN1S(=O)(=O)c1ccco1 [Example 180, (2S,4R)-1-(2-furylsulfonyl)-4-hydroxy-N-[[3-[[4-(trifluoromethyl)phenyl]methoxy]phenyl]methyl]pyrrolidine-2-carboxamide] |
| 100 nM | O=C(NCc1cccc(OCc2ccccc2)c1)[C@@H]1CCCN1S(=O)(=O)c1ccco1 [Example 181, (2S)-N-[(3-benzyloxyphenyl)methyl]-1-(2-furylsulfonyl)pyrrolidine-2-carboxamide] |
| 83 nM | O=C(NCc1cccc(OCc2ccccc2)c1)[C@@H]1C=CCN1S(=O)(=O)c1ccco1 [Example 182, (2S)-N-[(3-benzyloxyphenyl)methyl]-1-(2-furylsulfonyl)-2,5-dihydropyrrole-2-carboxamide] |
| 3300 nM | O=C(NCc1cccc(Oc2ccc(C(F)(F)F)cc2)c1)[C@@H]1CCCN1S(=O)(=O)c1nccs1 [Example 183, (2S)-1-thiazol-2-ylsulfonyl-N-[[3-[4-(trifluoromethyl)phenoxy]phenyl]methyl]pyrrolidine-2-carboxamide] |
| 980 nM | O=C(NCc1cccc(OCc2ccc(C(F)(F)F)cc2)c1)[C@@H]1CCCN1S(=O)(=O)c1nccs1 [Example 184, (2S)-1-thiazol-2-ylsulfonyl-N-[[3-[[4-(trifluoromethyl)phenyl]methoxy]phenyl]methyl]pyrrolidine-2-carboxamide] |
| 240 nM | N#Cc1ccc(S(=O)(=O)N2CCC[C@H]2C(=O)NCc2cccc(OCc3ccc(C(F)(F)F)cc3)c2)cc1 [Example 185, (2S)-1-(4-cyanophenyl)sulfonyl-N-[[3-[[4-(trifluoromethyl)phenyl]methoxy]phenyl]methyl]pyrrolidine-2-carboxamide] |
| 71 nM | O=C(NCc1cccc(Oc2ccc(C(F)(F)F)cc2)c1)[C@@H]1CCCN1S(=O)(=O)c1cccc(F)c1 [Example 186, (2S)-1-(3-fluorophenyl)sulfonyl-N-[[3-[4-(trifluoromethyl)phenoxy]phenyl]methyl]pyrrolidine-2-carboxamide] |
| 60 nM | O=C(NCc1cccc(Oc2ccc(C(F)(F)F)cc2)c1)[C@@H]1CCCN1S(=O)(=O)c1ccc(F)c(F)c1 [Example 187, (2S)-1-(3,4-difluorophenyl)sulfonyl-N-[[3-[4-(trifluoromethyl)phenoxy]phenyl]methyl]pyrrolidine-2-carboxamide] |
| 100 nM | O=C(NCc1cccc(Oc2ccc(C(F)(F)F)cc2)c1)[C@@H]1CCCN1S(=O)(=O)c1cc(F)cc(F)c1 [Example 188, (2S)-1-(3,5-difluorophenyl)sulfonyl-N-[[3-[4-(trifluoromethyl)phenoxy]phenyl]methyl]pyrrolidine-2-carboxamide] |
| 100 nM | O=C(NCc1cccc(Oc2ccc(C(F)(F)F)cc2)c1)[C@@H]1CCCN1S(=O)(=O)c1ccco1 [Example 189, (2S)-1-(2-furylsulfonyl)-N-[[3-[4-(trifluoromethyl)phenoxy]phenyl]methyl]pyrrolidine-2-carboxamide] |
| 35 nM | O=C(NCc1cccc(Oc2ccc(C(F)(F)F)cc2)c1)[C@@H]1CCCN1S(=O)(=O)c1ccsc1 [Example 190, (2S)-1-(3-thienylsulfonyl)-N-[[3-[4-(trifluoromethyl)phenoxy]phenyl]methyl]pyrrolidine-2-carboxamide] |
| 66 nM | O=C(NCc1cccc(OCc2ccc(C(F)(F)F)cc2)c1)[C@@H]1CCCN1S(=O)(=O)c1ccccc1 [Example 191, (2S)-1-(benzenesulfonyl)-N-[[3-[[4-(trifluoromethyl)phenyl]methoxy]phenyl]methyl]pyrrolidine-2-carboxamide] |
| 49 nM | O=C(NCc1cccc(OCc2ccc(C(F)(F)F)cc2)c1)[C@@H]1CCCN1S(=O)(=O)c1cccc(F)c1 [Example 192, (2S)-1-(3-fluorophenyl)sulfonyl-N-[[3-[[4-(trifluoromethyl)phenyl]methoxy]phenyl]methyl]pyrrolidine-2-carboxamide] |
| 260 nM | O=C(NCc1cccc(OCc2ccc(C(F)(F)F)cc2)c1)[C@@H]1CCCN1S(=O)(=O)c1cccc(Cl)c1 [Example 193, (2S)-1-(3-chlorophenyl)sulfonyl-N-[[3-[[4-(trifluoromethyl)phenyl]methoxy]phenyl]methyl]pyrrolidine-2-carboxamide] |
| 1100 nM | N#Cc1cccc(S(=O)(=O)N2CCC[C@H]2C(=O)NCc2cccc(OCc3ccc(C(F)(F)F)cc3)c2)c1 [Example 194, (2S)-1-(3-cyanophenyl)sulfonyl-N-[[3-[[4-(trifluoromethyl)phenyl]methoxy]phenyl]methyl]pyrrolidine-2-carboxamide] |
| 1700 nM | CC(=O)c1ccc(S(=O)(=O)N2CCC[C@H]2C(=O)NCc2cccc(OCc3ccc(C(F)(F)F)cc3)c2)cc1 [Example 195, (2S)-1-(4-acetylphenyl)sulfonyl-N-[[3-[[4-(trifluoromethyl)phenyl]methoxy]phenyl]methyl]pyrrolidine-2-carboxamide] |
